One assay has as its system circulating WBCs. As to the kind of experiment: Circulating WBC counts (full blood counts) during mobilization. Particulars: WT mice. The class given is in vivo, mouse. Here is the method:
(§1) To study the role of the plasminogen proteinase system with its plasminogen activators tPA and uPA, and active plasmin in stem/progenitor cell mobilization, mice lacking plasminogen (Plg^−/−), tPA (tPA^−/−), uPA (uPA^−/−) and both activators (tPA^−/−uPA^−/−) were used.^(17, 18) Age- and sex-matched mice were kept in IVC cages. Mobilization was induced either via a single sublethal injection i.v. of the myeloablative agent 5-fluorouracil (5-FU, 200-250 mg/kg), or via administration s.c. of recombinant human G-CSF (Filgrastim, Amgen, 200 μg/kg/d) for five consecutive days.^(12) Peripheral blood (PB) samples were obtained by retro-orbital bleeding under light anesthesia. Full blood counts were determined on the Abbott Cell Dyn 1300 hemocytometer. The number of mobilized hematopoietic progenitor cells (HPCs) in the circulation was determined via methylcellulose-based CFU-C assays (MethoCult, Stem Cell Technologies), per 10^5 peripheral blood mononuclear cells (PB MNCs).^(12) The number of mobilized hematopoietic stem cells (HSCs) in the circulation was quantified via splenic colony-forming assays (CFU-S), and evaluated for long-term engraftment via transplantation into lethally irradiated syngeneic wild-type recipients (9.5 Gy total body irradiation). […]

Assay [1] deals with hematopoietic progenitor cells (HPCs). As to the kind of experiment: Circulating CFU-C assay on PB MNCs (mobilized HPCs). It is filed as in vivo, mouse. Here is the method: as §1
Wild-type mice and mice lacking Plg, both tPA and uPA, tPA, uPA, uPAR, PAI-1, α2AP, MMP-2 (kind gift from S. Itohara), MMP-3 (kind gift from J. Mudgett), MMP-9, MMP-12 (kind gift from S. Shapiro), and TIMP-1 (obtained by courtesy of P. Soloway) were used, and housed in barrier cages (individually ventilated) (Heymans et al. (1999), Nat. Med. 5:1135-42). […] Peripheral blood was repetitively sampled by retro-orbital puncture under light anesthesia, and full blood counts (EDTA buffered) were determined on a hemocytometer (Abbott Cell Dyn 1300). Peripheral blood smears were stained using Giemsa-May-Grunwald and at least 200 cells were analyzed. […]

The subject of assay [2] is hematopoietic stem cells (HSCs). As to the kind of experiment: Splenic colony-forming assay CFU-S (mobilized HSCs). It is filed as in vivo, mouse. Particulars: WT mice. Here is the method:
as §1

Another assay concerns BM MNCs (HPCs). As to the kind of experiment: Chemotaxis transwell assay, migrated HPCs scored as CFU-Cs. The class given is cell-based, mouse. Particulars: factor in bottom well, overnight incubation; GM-CSF 100 ng/ml. Here is the method:
(§2) Mononuclear cells (MNCs) were prepared via Lympholiter-M (Cedarlane) and density centrifugation. For CFU-C assays, bone marrow cells (5×10^4), or PB MNCs (1×10^5 or 5×10^5) were plated in 35 mm dishes (Stem Cell Technologies) using methylcellulose supplemented with growth factors (MethoCult, Stem Cell Technologies), and colonies were blindly scored after seven and thirteen days, respectively, using an inverted microscope (Luttun et al. (2002), Nat. Med. 8:831-40). […] After five weeks of culture, cells were trypsinized, counted, plated in MethoCult, and CFU-Cs were scored after nine days. […] For CFU-S assays, lethal total body irradiation (9.0 to 9.5 Gy), and transplantation of mobilized PB MNCs (1 to 1.5×10^5) were performed in syngeneic recipients, survival was monitored or splenic colonies were blindly scored after twelve days using a dissection microscope. For bone marrow proliferation index, bone marrow cells from treated mice were plated in 96-well plates, CellTiter96 (Promega) was added, and repetitive colorimetric readings were performed at OD 490 nm. […] After overnight incubation, the migrated non-adherent cells in the bottom wells were collected, counted, plated in MethoCult and CFU-Cs were scored after twelve days.

The next assay relates to HSCs. Nature of the assay: Transplantation of mobilized PB MNCs into lethally irradiated WT recipients, survival. The class given is in vivo, mouse. Particulars: donors WT mice treated with G-CSF and agent. The method, then: as §1
In a further assay the test system is HSCs in the BM. As to the kind of experiment: HSCs in the BM, LTC-IC assay on AFT024 stromal feeder layers. It is filed as in vivo, mouse. Particulars: WT mice, after two days of treatment. Here is the method: as §2
The subject of another assay is HPCs in the BM. Nature of the assay: CFU-Cs (HPCs) in the BM. Particulars: WT mice, after two days of treatment. The class given is in vivo, mouse. The method, then: as §2
In another assay the test system is BM cells. Nature of the assay: BM proliferation index. The class given is in vivo, mouse. Particulars: G-CSF-treated, N=8. The method, then: In contrast, HSC translocation and HPC expansion in the bone marrow was completely abolished in G-CSF-treated Plg^−/− mice (FIG. 1, Panels j and k). […] Thus, plasminogen is required for stem/progenitor cell expansion during mobilization.
Mononuclear cells (MNCs) were prepared via Lympholiter-M (Cedarlane) and density centrifugation. For CFU-C assays, bone marrow cells (5×10^4), or PB MNCs (1×10^5 or 5×10^5) were plated in 35 mm dishes (Stem Cell Technologies) using methylcellulose supplemented with growth factors (MethoCult, Stem Cell Technologies), and colonies were blindly scored after seven and thirteen days, respectively, using an inverted microscope (Luttun et al. (2002), Nat. Med. 8:831-40). […] After five weeks of culture, cells were trypsinized, counted, plated in MethoCult, and CFU-Cs were scored after nine days. […] For CFU-S assays, lethal total body irradiation (9.0 to 9.5 Gy), and transplantation of mobilized PB MNCs (1 to 1.5×10^5) were performed in syngeneic recipients, survival was monitored or splenic colonies were blindly scored after twelve days using a dissection microscope. For bone marrow proliferation index, bone marrow cells from treated mice were plated in 96-well plates, CellTiter96 (Promega) was added, and repetitive colorimetric readings were performed at OD 490 nm. […]

The subject of the next assay is tPA. As to the kind of experiment: In vitro clot lysis with BM plasma samples. It is filed as in vivo, mouse. Particulars: N=4. From the text: Compared to WT or tPA^−/− mice, uPA^−/− mice had increased mortality and delayed hematopoietic recovery (FIG. 2, Panels b and c). […] Moreover, uPA deficiency reduced the number of BM HSCs (Sca1^+cKit^+) and HPCs (Sca1^+) after 5-FU. Thus, uPA is the responsible plasminogen activator, generating plasmin during 5-FU-induced stem cell mobilization. After G-CSF treatment, the levels of active tPA, but not uPA, increased in the BM plasma, when measured by casein zymography. […] To assess whether the specific up-regulation of tPA in response to G-CSF was functionally relevant, we determined whether tPA^−/− mice were capable of mobilizing stem/progenitor cells in response to G-CSF. […]
BM extracellular fluid (BM plasma) from mice was obtained as described previously (Petit et al. (2002), Nat. Immunol. 3:687-94). […] Murine sKitL and SDF1α protein levels were quantified using commercial available ELISA (R&D Systems, Abingdon, UK). Murine plasminogen, and murine and human suPAR were quantified by home-made ELISA (Heymans et al. (1999), Nat. Med. 5:1135-42; Sier et al. (2004), Thromb. Haemost. 91:403-11). […] MMP-2, MMP-9, and MMP-12 activities were measured using gelatin-zymography, uPA and MMP-3 activities were measured using casein-zymography, as described previously (Heymans et al. (1999), Nat. Med. 5:1135-42). […]

The test system of another assay is sKitL. As to the kind of experiment: sKitL levels in BM plasma (ELISA). The class given is in vivo, mouse. Particulars: WT mice, after G-CSF. The method, then:
BM extracellular fluid (BM plasma) from mice was obtained as described previously (Petit et al. (2002), Nat. Immunol. 3:687-94). BM plasma from healthy volunteers was obtained by using the first 10 ml of collection via puncture in the iliac crest under local anesthesia, and immediate anti-coagulation with EDTA. Protein extraction on BM cells was performed as described (Heymans et al. (1999), Nat. Med. 5:1135-42). Murine sKitL and SDF1α protein levels were quantified using commercial available ELISA (R&D Systems, Abingdon, UK). Murine plasminogen, and murine and human suPAR were quantified by home-made ELISA (Heymans et al. (1999), Nat. Med. 5:1135-42; Sier et al. (2004), Thromb. Haemost. 91:403-11). Lyophilized pertussis toxin was obtained from List Laboratories. MMP-2, MMP-9, and MMP-12 activities were measured using gelatin-zymography, uPA and MMP-3 activities were measured using casein-zymography, as described previously (Heymans et al. (1999), Nat. Med. 5:1135-42). Samples from gene-deficient mice were used as negative controls. Plasmin activity of BM plasma or cells (pericellular activity) was measured using substrate colorimetry (S2403), as described previously (Heymans et al. (1999), Nat. Med. 5:1135-42). Fibrinolytic activity was measured using a modified fluorescent-based in vitro clot lysis assay (Heymans et al. (1999), Nat. Med. 5:1135-42). Western blotting was performed on non-reduced samples, which were neutralized with a cocktail of protease inhibitors (Complete Inhibitor, Roche). ECM components/fragments were detected with antibodies against mouse fibronectin and laminin (Sigma), and human D1D2D3 and D2D3 (Andolfo et al. (1999), Thromb. Haemost. 88:298-306), secondary HRP-labeled antibodies (DAKO), and ECL detection system (Amersham Pharmacia).

[3] abbreviates: G-CSF plus drug for five days, compared to control vehicle.
[4] abbreviates: G-CSF in combination with agent for five days, compared to G-CSF alone.

These results are taken from patent US8003096B2, “Means and methods for the recruitment and identification of stem cells” (Vlaams Interuniversitair Instituut voor Biotechnologie VZW, priority 2003, dated 2011).

As for `NC[C@H]1CC[C@H](C(=O)O)CC1` [exacyl, tranexamic acid], the “reduction of G-CSF-induced mobilization of WBCs” value in the assay with circulating WBCs (setting [3]) is 37%. Besides, the “reduction of G-CSF-induced mobilization of HPCs” value in assay [1] (WT mice, G-CSF plus drug for five days, compared to control vehicle) was 55%. In addition, the “reduction of G-CSF-induced mobilization of HSCs” value in [2] (setting [3]) is given as 49%.

In turn, “GM-CSF: recombinant human GM-CSF (R&D systems), positive control in chemotaxis assay” returned an HPCs in transwell in the assay with BM MNCs (HPCs) of 1363±323.

Turning to pertussis toxin, the “mobilization of HPCs” value in [1] (uPAR−/− mice, single i.v. bolus of 500 ng, after five days) is “efficiently mobilized”.

As to tenecteplase, the “enhanced mobilization of WBCs” value in the assay with circulating WBCs (setting [4]) is reported as 87%. In addition, the “enhanced mobilization of HPCs” value in assay [1] (WT mice, G-CSF in combination with agent for five days, compared to G-CSF alone) came out at 65%. In addition, in assay [2] (setting [4]), the “enhanced mobilization of HSCs” value worked out at 155%. Besides, in the assay on HSCs, the “survival of lethally irradiated WT recipient mice after transplantation of mobilized cells” value is “significantly increased”.

B1: G-CSF: recombinant human G-CSF (Filgrastim, Amgen) (protein, chains of the INN, looked up)
chain: MTPLGPASSLPQSFLLKCLEQVRKIQGDGAALQEKLCATYKLCHPEELVLLGHSLGIPWAPLSSCPSQALQLAGCLSQLHSGLFLYQGLLQALEGISPELGPTLDTLQLDVADFATTIWQQMEELGMAPALQPTQGAMPAFASAFQRRAGGVLVASHLQSFLEVSYRVLRHLAQP
Take B1: the “reduction of the number of HSCs in the bone marrow” value in the assay on HSCs in the BM was found to be 65%. Besides, the “increase of the number of HPCs in the bone marrow” value in the assay with HPCs in the BM turned out to be 44%. For the same molecule, the “BM proliferation index (percent of proliferating BM cells in control mice)” value is recorded as 73±8% in the assay with BM cells (Plg−/− mice) and 167±14% in the assay with BM cells (WT mice). Also, the “in vitro clot lysis, percentage of a positive standard” value stood at 79±2% in the assay on tPA (BM plasma of G-CSF-treated WT mice) and 58±2% in the assay with tPA (BM plasma of G-CSF-treated tPA−/− mice). Also, the “sKitL levels in the BM plasma” value with sKitL was “not increased”.
